Test results reported in ChEMBL document CHEMBL1275576, “In vitro activity of tomopenem (CS-023/RO4908463) against anaerobic bacteria” (Antimicrob Agents Chemother, 2009).

Key:
Prevotella oris = assay: Antimicrobial activity against Prevotella oris ATCC 33573 by agar dilution method in presence of 5% laked sheep blood; format: functional; details: Segatella oris
[1] = test system: Peptoniphilus asaccharolyticus; assay: Antimicrobial activity against Peptoniphilus asaccharolyticus by agar dilution method in presence of 5% laked sheep blood; format: functional
[2] = test system: Bifidobacterium pseudolongum; assay: Antimicrobial activity against Bifidobacterium pseudolongum ATCC 25526 by agar dilution method in presence of 5% laked sheep blood; format: functional
Fusobacterium sp. = assay: Antimicrobial activity against Fusobacterium sp. by agar dilution method in presence of 5% laked sheep blood; format: functional
Eggerthella lenta [3] = assay: Antimicrobial activity against Eggerthella lenta ATCC 25559 by agar dilution method in presence of 5% laked sheep blood; format: functional
[4] = test system: Desulfovibrio desulfuricans; assay: Antimicrobial activity against Desulfovibrio desulfuricans by agar dilution method in presence of 5% laked sheep blood; format: functional
Fusobacterium nucleatum [5] = assay: Antimicrobial activity against Fusobacterium nucleatum by agar dilution method in presence of 5% laked sheep blood; format: functional
Porphyromonas gingivalis = assay: Antimicrobial activity against Porphyromonas gingivalis by agar dilution method in presence of 5% laked sheep blood; format: functional
[6] = Antimicrobial activity against Bifidobacterium longum subsp. longum ATCC 15707 by agar dilution method in presence of 5% laked sheep blood; format: functional
[7] = test system: Prevotella melaninogenica; assay: Antimicrobial activity against Prevotella melaninogenica by agar dilution method in presence of 5% laked sheep blood; format: functional
Parvimonas micra = assay: Antimicrobial activity against Parvimonas micra by agar dilution method in presence of 5% laked sheep blood; format: functional
Eubacterium limosum = assay: Antimicrobial activity against Eubacterium limosum by agar dilution method in presence of 5% laked sheep blood; format: functional
Fusobacterium nucleatum [8] = assay: Antimicrobial activity against Fusobacterium nucleatum ATCC 25586 by agar dilution method in presence of 5% laked sheep blood; format: functional
Gemella morbillorum = assay: Antimicrobial activity against Gemella morbillorum ATCC 27824 by agar dilution method in presence of 5% laked sheep blood; format: functional
[9] = test system: Paeniclostridium sordellii; assay: Antimicrobial activity against Clostridium sordellii ATCC 9714 by agar dilution method in presence of 5% laked sheep blood; format: functional; details: Paraclostridium sordellii
Bacteroides uniformis [10] = assay: Antimicrobial activity against Bacteroides uniformis ATCC 8492 by agar dilution method in presence of 5% laked sheep blood; format: functional
[11] = test system: Porphyromonas asaccharolytica; assay: Antimicrobial activity against Porphyromonas asaccharolyticus by agar dilution method in presence of 5% laked sheep blood; format: functional
[12] = test system: Limosilactobacillus reuteri; assay: Antimicrobial activity against Lactobacillus reuteri JCM 1112 by agar dilution method in presence of 5% laked sheep blood; format: functional
[13] = test system: Porphyromonas asaccharolytica; assay: Antimicrobial activity against Porphyromonas asaccharolyticus ATCC 25260 by agar dilution method in presence of 5% laked sheep blood; format: functional; details: DSM 20707
[14] = test system: Bacteroides thetaiotaomicron; assay: Antimicrobial activity against Bacteroides thetaiotaomicron by agar dilution method in presence of 5% laked sheep blood; format: functional
[15] = test system: Desulfovibrio desulfuricans; assay: Antimicrobial activity against Desulfovibrio desulfuricans ATCC 29577 by agar dilution method in presence of 5% laked sheep blood; format: functional
[16] = test system: Peptostreptococcus anaerobius; assay: Antimicrobial activity against Peptostreptococcus anaerobius by agar dilution method in presence of 5% laked sheep blood; format: functional
[17] = test system: Streptococcus intermedius; assay: Antimicrobial activity against Streptococcus intermedius ATCC 27335 by agar dilution method in presence of 5% laked sheep blood; format: functional
Bacteroides fragilis [18] = assay: Antimicrobial activity against Bacteroides fragilis by agar dilution method in presence of 5% laked sheep blood; format: functional
Lactobacillus brevis = assay: Antimicrobial activity against Lactobacillus brevis subsp. brevis JCM 1059 by agar dilution method in presence of 5% laked sheep blood; format: functional; details: Levilactobacillus brevis
Bacteroides fragilis [19] = assay: Antimicrobial activity against Bacteroides fragilis GAI 10150 by agar dilution method in presence of 5% laked sheep blood; format: functional
[20] = Antimicrobial activity against Desulfovibrio piger DSM 749 by agar dilution method in presence of 5% laked sheep blood; format: functional, Desulfovibrio piger ATCC 29098
[21] = test system: Parabacteroides distasonis; assay: Antimicrobial activity against Parabacteroides distasonis by agar dilution method in presence of 5% laked sheep blood; format: functional
Bacteroides fragilis [22] = assay: Antimicrobial activity against Bacteroides fragilis GAI 5562 by agar dilution method in presence of 5% laked sheep blood; format: functional
[23] = test system: Fusobacterium necrophorum; assay: Antimicrobial activity against Fusobacterium necrophorum by agar dilution method in presence of 5% laked sheep blood; format: functional
Clostridioides difficile = assay: Antimicrobial activity against Clostridium difficile by agar dilution method in presence of 5% laked sheep blood; format: functional
Eggerthella lenta [24] = assay: Antimicrobial activity against Eggerthella lenta by agar dilution method in presence of 5% laked sheep blood; format: functional
[25] = test system: Peptoniphilus asaccharolyticus; assay: Antimicrobial activity against Peptoniphilus asaccharolyticus WAL 3218 by agar dilution method in presence of 5% laked sheep blood; format: functional
Prevotella denticola = assay: Antimicrobial activity against Prevotella denticola GAI 5490 by agar dilution method in presence of 5% laked sheep blood; format: functional
Atopobium parvulum = assay: Antimicrobial activity against Atopobium parvulum VPI 0546 by agar dilution method in presence of 5% laked sheep blood; format: functional; details: Lancefieldella parvula
[26] = Antimicrobial activity against Bifidobacterium adolescentis ATCC 15703 by agar dilution method in presence of 5% laked sheep blood; format: functional
Bacteroides stercoris = assay: Antimicrobial activity against Bacteroides stercoris by agar dilution method in presence of 5% laked sheep blood; format: functional
Clostridium perfringens = assay: Antimicrobial activity against Clostridium perfringens ATCC 13124 by agar dilution method in presence of 5% laked sheep blood; format: functional
Bacteroides uniformis [27] = assay: Antimicrobial activity against Bacteroides uniformis by agar dilution method in presence of 5% laked sheep blood; format: functional
Bifidobacterium breve = assay: Antimicrobial activity against Bifidobacterium breve ATCC 15700 by agar dilution method in presence of 5% laked sheep blood; format: functional
Finegoldia magna = assay: Antimicrobial activity against Finegoldia magna by agar dilution method in presence of 5% laked sheep blood; format: functional
Odoribacter splanchnicus = assay: Antimicrobial activity against Odoribacter splanchnicus by agar dilution method in presence of 5% laked sheep blood; format: functional
Porphyromonas uenonis = assay: Antimicrobial activity against Porphyromonas uenonis by agar dilution method in presence of 5% laked sheep blood; format: functional
Bacteroides caccae = assay: Antimicrobial activity against Bacteroides caccae by agar dilution method in presence of 5% laked sheep blood; format: functional
[28] = Antimicrobial activity against Veillonella dispar ATCC 17748 by agar dilution method in presence of 5% laked sheep blood; format: functional

C[C@@H](O)[C@H]1C(=O)N2C(C(=O)O)=C(S[C@@H]3CN[C@H](C(=O)N(C)C)C3)[C@H](C)[C@H]12 [MEROPENEM]
MIC (Prevotella oris): 0.06 µg/mL
MIC50 [1]: ≤ 0.015 µg/mL
MIC90 [1]: 0.125 µg/mL
MIC [2]: 0.25 µg/mL
MIC50 (Fusobacterium sp.): 0.03 µg/mL
MIC90 (Fusobacterium sp.): 0.125 µg/mL
MIC (Eggerthella lenta [3]): 1 µg/mL
MIC50 [4]: 0.06 µg/mL
MIC90 [4]: 0.125 µg/mL
MIC50 (Fusobacterium nucleatum [5]): 0.03 µg/mL
MIC90 (Fusobacterium nucleatum [5]): 0.125 µg/mL
MIC50 (Porphyromonas gingivalis): ≤ 0.015 µg/mL
MIC90 (Porphyromonas gingivalis): 0.03 µg/mL
MIC [6]: 0.5 µg/mL
MIC50 [7]: 0.125 µg/mL
MIC90 [7]: 0.25 µg/mL
MIC50 (Parvimonas micra): 0.06 µg/mL
MIC90 (Parvimonas micra): 0.125 µg/mL
MIC50 (Eubacterium limosum): 0.5 µg/mL
MIC90 (Eubacterium limosum): 1 µg/mL
MIC (Fusobacterium nucleatum [8]): 8 µg/mL
MIC (Gemella morbillorum): ≤ 0.015 µg/mL
MIC [9]: 0.03 µg/mL
MIC (Bacteroides uniformis [10]): 0.125 µg/mL
MIC50 [11]: ≤ 0.015 µg/mL
MIC90 [11]: 0.03 µg/mL
MIC [12]: 0.5 µg/mL
MIC [13]: ≤ 0.015 µg/mL
MIC50 [14]: 0.5 µg/mL
MIC90 [14]: 2 µg/mL
MIC [15]: 0.125 µg/mL
MIC50 [16]: 0.25 µg/mL
MIC90 [16]: 2 µg/mL
MIC [17]: 0.25 µg/mL
MIC50 (Bacteroides fragilis [18]): 0.25 µg/mL
MIC90 (Bacteroides fragilis [18]): 0.5 µg/mL
MIC (Lactobacillus brevis): 0.5 µg/mL
MIC (Bacteroides fragilis [19]): 2 µg/mL
MIC [20]: 0.03 µg/mL
MIC50 [21]: 0.25 µg/mL
MIC90 [21]: 4 µg/mL
MIC (Bacteroides fragilis [22]): 0.125 µg/mL
MIC50 [23]: 0.03 µg/mL
MIC90 [23]: 0.125 µg/mL
MIC50 (Clostridioides difficile): 2 µg/mL
MIC90 (Clostridioides difficile): 4 µg/mL
MIC50 (Eggerthella lenta [24]): 0.5 µg/mL
MIC90 (Eggerthella lenta [24]): 1 µg/mL
MIC [25]: ≤ 0.015 µg/mL
MIC (Prevotella denticola): 0.06 µg/mL
MIC (Atopobium parvulum): 0.5 µg/mL
MIC [26]: 0.125 µg/mL
MIC50 (Bacteroides stercoris): 0.25 µg/mL
MIC90 (Bacteroides stercoris): 4 µg/mL
MIC (Clostridium perfringens): ≤ 0.015 µg/mL
MIC50 (Bacteroides uniformis [27]): 0.25 µg/mL
MIC90 (Bacteroides uniformis [27]): 4 µg/mL
MIC (Bifidobacterium breve): 1 µg/mL
MIC50 (Finegoldia magna): 0.125 µg/mL
MIC90 (Finegoldia magna): 0.125 µg/mL
MIC50 (Odoribacter splanchnicus): 0.25 µg/mL
MIC90 (Odoribacter splanchnicus): 4 µg/mL
MIC50 (Porphyromonas uenonis): ≤ 0.015 µg/mL
MIC90 (Porphyromonas uenonis): 0.03 µg/mL
MIC50 (Bacteroides caccae): 0.25 µg/mL
MIC90 (Bacteroides caccae): 4 µg/mL
MIC [28]: 0.03 µg/mL
